Where a name gives a salt, the structure may show the parent alone. Read-outs that look alike come from different tables or passages of the source.
Assays:
[1] = molecular target: T1, HOIP (Homo sapiens, UniProt Q96EP0); assay: X-ray crystal structure at […] Å; also MALDI-TOF intact mass adduct (+[…]) on petit-LUBAC and inhibition of HOIP~ubiquitin thioester formation; assay type: binding
T1 construct: gene RNF31; RING2-LDD domain, residues 853–1072

[2] = system: A549; assay: cells; set-up: species or system human tumour lines, HEK293T, mouse MEF; Cell viability after 72 h, CellTiter-Glo luminescent assay; settings: Homo sapiens, A549, 72 h
[3] = system: BJAB; assay: cells; set-up: species or system human tumour lines, HEK293T, mouse MEF; Cell viability after 72 h, CellTiter-Glo luminescent assay; settings: Homo sapiens, BJAB, 72 h
[4] = system: DLBCL2; assay: cells; set-up: species or system human tumour lines, HEK293T, mouse MEF; Cell viability after 72 h, CellTiter-Glo luminescent assay; settings: Homo sapiens, HEK-293T, 72 h; read-out: HOIPIN-1 (IC50)
[5] = system: HBL1; assay: cells; set-up: species or system human tumour lines, HEK293T, mouse MEF; Cell viability after 72 h, CellTiter-Glo luminescent assay; settings: HBL1, 72 h
[6] = system: HT; assay: cells; set-up: species or system human tumour lines, HEK293T, mouse MEF; Cell viability after 72 h, CellTiter-Glo luminescent assay; settings: Homo sapiens, HT, 72 h
[7] = system: HeLa; assay: cells; set-up: species or system human tumour lines, HEK293T, mouse MEF; Cell viability after 72 h, CellTiter-Glo luminescent assay; settings: Homo sapiens, HeLa, 72 h
[8] = system: Jurkat; assay: cells; set-up: species or system human tumour lines, HEK293T, mouse MEF; Cell viability after 72 h, CellTiter-Glo luminescent assay; settings: Homo sapiens, Jurkat, 72 h
[9] = system: KM-H2; assay: cells; set-up: species or system human tumour lines, HEK293T, mouse MEF; Cell viability after 72 h, CellTiter-Glo luminescent assay; settings: Homo sapiens, KM-H2, 72 h
[10] = system: Karpas1160P; assay: cells; set-up: species or system human tumour lines, HEK293T, mouse MEF; Cell viability after 72 h, CellTiter-Glo luminescent assay; settings: Homo sapiens, HEK-293T, 72 h
[11] = system: OYB; assay: cells; set-up: species or system human tumour lines, HEK293T, mouse MEF; Cell viability after 72 h, CellTiter-Glo luminescent assay; settings: Homo sapiens, HEK-293T, 72 h
[12] = system: SU-DHL-4; assay: cells; set-up: species or system human tumour lines, HEK293T, mouse MEF; Cell viability after 72 h, CellTiter-Glo luminescent assay; settings: Homo sapiens, SU-DHL-4, 72 h
[13] = system: TK; assay: cells; set-up: species or system human tumour lines, HEK293T, mouse MEF; Cell viability after 72 h, CellTiter-Glo luminescent assay; settings: Homo sapiens, HEK-293T, 72 h
[14] = system: WT-MEF; assay: cells; set-up: species or system human tumour lines, HEK293T, mouse MEF; Cell viability after 72 h, CellTiter-Glo luminescent assay; settings: 72 h
Text: (§1) Importantly, the polymorphisms in HOIP are closely associated with ABC-DLBCL[23]. […] Therefore, we investigated the effect of HOIPINs on B cell lymphoma cells. […] In ABC-DLBCL cell lines, the phosphorylation of p105 and p65 and the expression of NF-κB target genes were suppressed by HOIPINs (Fig. 6d, e). Moreover, the phosphorylation of IκBα was decreased concomitantly with the reduced intracellular amounts of linear polyubiquitin in HOIPIN-1-treated HBL1 cells (an ABC-DLBCL cell line), but not in BJAB cells (a GCB-DLBCL cell line) (Fig. 6f). […] GCB-DLBCL cells (BJAB, SU-DHL-4, and HT) and ABC-DLBCL cells (TK, DLBCL2, and OYB) were cultured in the presence of DMSO or 10 μM HOIPIN-1. Taking the cell viabilities in the presence of DMSO as 100%, the relative cell viabilities of respective cell line in the presence of HOIPIN-1 were assessed by a CellTiter-Glo luminescent cell viability assay. b HOIPIN-8 enhanced the cell death of ABC-DLBCL cells than HOIPIN-1. DLBCL2 cells or BJAB cells were treated with DMSO, 10 μM HOIPIN-1, or 10 μM HOIPIN-8 for the indicated period, and the relative cell viabilities were assessed as in a. c Caspase activation in ABC-DLBCL cells by HOIPIN-8. Cells were treated with or without 10 μM HOIPIN-8 for 24 h, and cell lysates were immunoblotted with the indicated antibodies. d Reduced NF-κB activation in ABC-DLBCL cells by HOIPIN-8. Cells were treated and analyzed as in c. e HOIPIN-1 suppresses the expression of NF-κB target genes in ABC-DLBCL cells. Cells were treated with 10 μM HOIPIN-1 for 24 h, and qPCR analyses were performed. f Intracellular linear ubiquitin and IκBα phosphorylation in ABC-DLBCL cells are diminished by HOIPIN-1. HBL1 and BJAB cells were treated with 10 μM HOIPIN-1 for the indicated period, and cell lysates were immunoblotted with the indicated antibodies. g HOIPIN-8 has potent inhibitory effects on NF-κB activation and linear ubiquitination in ABC-DLBCL cells than those in HOIPIN-1. HBL1 cells were treated with the indicated concentrations of HOIPIN-1 or -8 for 24 h, and cell lysates were immunoblotted with the indicated antibodies. In b, e, data are shown as mean ± SEM, NS not significant, *P < 0.05, **P < 0.01, ***P < 0.001, ****P < 0.0001, by one-way ANOVA with Tukey’s post hoc test. A549, HEK293T, HeLa (ATCC), optineurin-deficient HeLa[31], HOIP-deficient HeLa, C885A mutant of HOIP-restored HeLa, wild-type MEF, and Sharpin-deficient cpdm MEF cells were cultured in DMEM containing 10% fetal bovine serum, 100 IU/ml penicillin G, and 100 μg/ml streptomycin. […]

[15] = system: T2, cpdm MEF; assay: cells; set-up: species or system human tumour lines, HEK293T, mouse MEF; Cell viability after 72 h, CellTiter-Glo luminescent assay; settings: 72 h
T2 construct: cpdm (Sharpin-deficient)
Text: as §1

[16] = system: HEK293T; assay: cells; set-up: species or system human tumour lines, mouse MEF; Cell viability after 72 h, CellTiter-Glo luminescent assay; settings: Homo sapiens, HEK-293T, 72 h
Text: Importantly, the polymorphisms in HOIP are closely associated with ABC-DLBCL[23]. […] Therefore, we investigated the effect of HOIPINs on B cell lymphoma cells. […] In ABC-DLBCL cell lines, the phosphorylation of p105 and p65 and the expression of NF-κB target genes were suppressed by HOIPINs (Fig. 6d, e). Moreover, the phosphorylation of IκBα was decreased concomitantly with the reduced intracellular amounts of linear polyubiquitin in HOIPIN-1-treated HBL1 cells (an ABC-DLBCL cell line), but not in BJAB cells (a GCB-DLBCL cell line) (Fig. 6f). […] GCB-DLBCL cells (BJAB, SU-DHL-4, and HT) and ABC-DLBCL cells (TK, DLBCL2, and OYB) were cultured in the presence of DMSO or 10 μM HOIPIN-1. Taking the cell viabilities in the presence of DMSO as 100%, the relative cell viabilities of respective cell line in the presence of HOIPIN-1 were assessed by a CellTiter-Glo luminescent cell viability assay. b HOIPIN-8 enhanced the cell death of ABC-DLBCL cells than HOIPIN-1. DLBCL2 cells or BJAB cells were treated with DMSO, 10 μM HOIPIN-1, or 10 μM HOIPIN-8 for the indicated period, and the relative cell viabilities were assessed as in a. c Caspase activation in ABC-DLBCL cells by HOIPIN-8. […] Cells were treated and analyzed as in c. e HOIPIN-1 suppresses the expression of NF-κB target genes in ABC-DLBCL cells. […]

SMILES: COc1ccccc1C(=O)/C=C/c1ccccc1C(=O)O [HOIPIN-1, 2-[(1E)-3-(2-methoxyphenyl)-3-oxoprop-1-en-1yl] benzoic acid sodium salt]
- X-ray crystal structure at 1.54 Å; also MALDI-TOF intact mass adduct (+263) on p [1]: HOIPINs are covalently attached to the catalytic Cys885 of HOIP via Michael addition
- IC50 ([2]; read-out: HOIPIN-1 (IC50)): > 100 µM
- IC50 ([3]; read-out: HOIPIN-1 (IC50)): 52.2 µM
- IC50 [4]: 11.1 µM
- IC50 ([5]; read-out: HOIPIN-1 (IC50)): 16.4 µM
- IC50 ([6]; read-out: HOIPIN-1 (IC50)): 48.2 µM
- IC50 ([7]; read-out: HOIPIN-1 (IC50)): 33.7 µM
- IC50 ([8]; read-out: HOIPIN-1 (IC50)): 20.6 µM
- IC50 ([9]; read-out: HOIPIN-1 (IC50)): 9.6 µM
- IC50 ([10]; read-out: HOIPIN-1 (IC50)): 11 µM
- IC50 ([11]; read-out: HOIPIN-1 (IC50)): 16 µM
- IC50 ([12]; read-out: HOIPIN-1 (IC50)): 46.9 µM
- IC50 ([13]; read-out: HOIPIN-1 (IC50)): 9.7 µM
- IC50 ([14]; read-out: HOIPIN-1 (IC50)): > 100 µM
- IC50 ([15]; read-out: HOIPIN-1 (IC50)): > 100 µM
- IC50 ([16]; read-out: HOIPIN-1 (IC50)): 40.3 µM

SMILES: Cn1cc(-c2ccc(C(=O)O)c(/C=C/C(=O)c3c(F)cc(-c4cn[nH]c4)cc3F)c2)cn1 [HOIPIN-8, 2-{(E)-3-[2,6-difluoro-4-(1H-pyrazol-4-yl)-phenyl]-3-oxo-propenyl}-4-(1-methyl-1H-pyraol-4-yl)-benzoic acid sodium salt]
- IC50 ([2]; read-out: HOIPIN-8 (IC50)): > 100 µM
- IC50 ([3]; read-out: HOIPIN-8 (IC50)): > 30 µM
- IC50 ([5]; read-out: HOIPIN-8 (IC50)): 16.7 µM
- IC50 ([6]; read-out: HOIPIN-8 (IC50)): > 30 µM
- IC50 ([7]; read-out: HOIPIN-8 (IC50)): > 100 µM
- IC50 ([8]; read-out: HOIPIN-8 (IC50)): > 100 µM
- IC50 ([9]; read-out: HOIPIN-8 (IC50)): 40.7 µM
- IC50 ([10]; read-out: HOIPIN-8 (IC50)): 27.6 µM
- IC50 ([11]; read-out: HOIPIN-8 (IC50)): 14.4 µM
- IC50 ([12]; read-out: HOIPIN-8 (IC50)): > 30 µM
- IC50 ([13]; read-out: HOIPIN-8 (IC50)): 3.7 µM
- IC50 ([14]; read-out: HOIPIN-8 (IC50)): 49.7 µM
- IC50 ([15]; read-out: HOIPIN-8 (IC50)): 51.8 µM
- IC50 ([16]; read-out: HOIPIN-8 (IC50)): 70.3 µM
